In US12036282B2, “Liposomal system for drug delivery” (NewSouth Innovations PTY Limited, priority 2017, dated 2024):
{FAM} = fluorescein (FAM) label

Assay: Agarose gel electrophoresis of oligonucleotide after X-ray exposure
Type: physicochemical
Conditions: X-ray 1, 2 and 4 Gy, compared with the control
Protocol: The PC12, HCT116 and CCD 841 CoN cells (1-4×10^4/mL) were, respectively, grown on 96-well plates in a culture medium with 10% FBS for 24 hr. For liposome and LipoDox treatment experiments, the PC12 cells and CCD 841 CoN cells were, respectively, incubated with different liposome and LipoDox samples for 4 hours, followed by incubation in a fresh medium for further 24 hours. For the X-ray exposure experiments, all three types of cells were radiated with 4 Gy, followed by incubation in a fresh medium for further 24 and 48 hours. Cell viability was assessed by using the same method as described above. For X-ray treatment of pure DNA molecules and mixture of DNA and verteporfin, 50 μL of antisense oligonucleotide solution (10 μg/mL) and 50 μL of mixture solution (10 μg/mL DNA and 32 μg/mL verteporfin) was respectively exposed to X-ray radiation with different dosage (1, 2 and 4 Gy). After treatment, the gel electrophoresis was carried out in 1.2% agarose gel in Tris-acetate-EDTA (TAE) buffer at 95 V for 45 min. The gel was stained with SYBR Safe DNA Gel Stain (Thermo Fisher) and photographed under UV light using a Bio-Rad imaging system.

Substance: 5′-TGGTGCTTCCCAGCCACTAT-3′ (SEQ ID NO:1) (3' {FAM}, sugars by position and backbone not given here) [DNA molecules, antisense oligonucleotide against PAC1R gene, 10 μg/mL solution exposed to X-ray]
- damage to oligonucleotide after X-ray radiation (gel electrophoresis): did not cause obvious damage
